Paper PMC11909128, “Identification and inhibition of PIN1-NRF2 protein–protein interactions through computational and biophysical approaches” (Scientific Reports, 2025)
Read-outs that look alike come from different tables or passages of the source. Square brackets hold non-standard residues; d marks the D form. Ends that are not written are not given here. Peptide text beside a SMILES is read from it. * marks the point of attachment. fluorescein = fluorescein label at the N-terminus via an aminohexanoic acid (Ahx) linker; FITC = O=C1OC2(c3ccc(O)cc3Oc3cc(O)ccc32)c2ccc(NC(=S)*)cc21; pS = N[C@@H](COP(=O)(O)O)C(=O)O; Ahx = NCCCCCC(=O)O

Tests used:
[1] = target: T1, PIN1-NRF2 interaction (Homo sapiens, UniProt Q13526, M1N); assay: FP protein titration: GST-PIN1 titrated to fluorescently labelled NRF2 phospho-peptides in the presence of a fixed concentration of Pintide or PIN1 inhibitor; type: binding; settings: for fold reduction in binding affinity of NRF2_209-222^pSer215 / fold reduction in binding affinity of NRF2_402-415^pSer408 / fold reduction in binding affinity of NRF2_571-584^pSer577: inhibitor 100 µM vs DMSO
T1 construct: host or cells: E. coli BL21 (DE3)
Method: First, GST-PIN1 was titrated to the fluorescently labelled Nrf 2 phospho-peptides (10 nM) in the presence of a fixed concentration of Pintide (10 µM).
In this study, we integrated three different PIN1 inhibitors, including juglone, epigallocatechin gallate (EGCG), and KPT-6566 (Fig. 6a). […] First, GST-PIN1 was titrated to the fluorescently labelled NRF2 phospho-peptides (10 nM) in the presence of a fixed concentration of PIN1 inhibitor (100 µM).
(§1) Fluorescence polarisation experiments were performed at room temperature in a buffer consisting of 5 mM HEPES pH 7.4, 30 mM NaCl, 0.1% v/v Tween20, and 1% v/v DMSO. Corning black, round-bottom, low-binding 384-well plates were utilized for all assays. The NRF2 mimicking fluorescein-labelled peptides, ETTMVPp[…] (NRF2_209-222^pSer215), DMVQPLp[…] (NRF2_402-415^pSer408), and EDGKPYp[…] (NRF2_571-584^pSer577) and the Pintide peptide (WFYpSPFLE) with the optimal binding for the WW domain were commercially purchased from China Peptides. For protein titration studies, GST-PIN1 was titrated to the fluorescently-labelled Nrf 2 phospho-peptides (10 nM) in the presence of a fixed concentration of PIN1 inhibitor (100 μM) or only DMSO as control group. To show PIN1 specificity, only GST protein was used as the control protein group. Fluorescence polarisation was measured using a CLARIOstar® Microplate Reader with an excitation wavelength of λex: 490/20 nm and an emission wavelength of λem: 535/20 nm. The binding affinities (Kd) were determined by sing GraphPad Prism 7 software, and sigmoidal curves were fitted using the equation: Y = Bottom + (Top − Bottom)/(1 + 10^((Log app.Kd − X) * HillSlope)), where Y represents the mP value, X denotes the log protein concentration, and Top and Bottom represent the plateaus in mP. Moreover, for the ligand displacement assays, the inhibitors were titrated to a fixed concentration of GST-PIN1 (1 μM) and fluorescently labelled NRF2 peptide (10 nM). The change in polarisation values were normalised to the DMSO control group and presented as percentage change.

[2] = target: T2, PIN1 (Homo sapiens, UniProt Q13526); assay: Denaturing mass spectrometry of PIN1 incubated with KPT-6566 (covalent modification); settings: PIN1 10 µM, KPT-6566 30 µM, 1 h
Method: KPT-6566 was previously shown to covalently modify the PIN1 PPIase domain at Cys113 via an unusual disulfide exchange of the sulfonyl-acetate moiety (KPT-65666-A, Fig. 7a)[31]. […] The remaining fragment of KPT-6566 (KPT-6566-B) was reported to be released into the cytoplasm. To verify this, we incubated PIN1 (10 µM) with KPT-6566 (30 µM) and then analysed the results by denaturing mass spectrometry. […] Of this, there was only a barely detectable trace of covalent PIN1 modification with KPT-6566-A (Supplementary Fig. 6a, b). […] Given these findings, the effects of both modes of covalent PIN1 modification by KPT-6566 on NRF2 phospho-peptide binding were subject to computational simulations.
From protein stock, PIN1 was diluted into an assay buffer solution of 50 mM HEPES, 300 mM NaCl pH 7.4 to a final concentration 10 μM and incubated with KPT-6566 (30 μM) for 1 h. Then, the sample was 2-times diluted by using H2O containing 0.1% v/v formic acid solution to give a final protein concentration of 0.1–1 mg/mL, and mass spectra were obtained using a Waters Acquity XEVO Q ToF instrument.

[3] = target: T1, PIN1-NRF2 interaction; assay: FP competition / ligand displacement assay: competitor titrated to fixed GST-PIN1 and fluorescently labelled NRF2 peptide; type: binding
Method: Next, a competition binding assay was used to determine if Pintide competed for PIN1 binding with the NRF2 peptides in a concentration dependent manner. Thus, Pintide was titrated to a fixed concentration of GST-PIN1 (1 µM) and fluorescently labelled NRF2 peptide (10 nM).
Thus, the inhibitors were titrated to a fixed concentration of GST-PIN1 (1 µM) and fluorescently labelled NRF2 peptide (10 nM).
as §1

[4] = tested on: breast cancer cells; design: method as in PMID 28598431; settings: breast cancer cells treated with KPT-6566; cited from earlier work
[5] = target: T2, PIN1; design: method as in PMID 28598431; settings: disulfide exchange of the sulfonyl-acetate moiety at Cys113; cited from earlier work
[6] = target: GST-PIN1 (Homo sapiens, UniProt Q13526, M1N); assay: Fluorescence polarisation (FP) direct binding: GST-PIN1 titrated to fluorescently labelled phospho-peptide; design: host or cells: E. coli BL21 (DE3); settings: apparent Kd compared with Pintide
Method: as §1, with “Moreover, for the ligand displacement assays, the inhibitors were titrated to a fixed concentration of GST-PIN1 (1 μM) and fluorescently labelled NRF2 peptide (10 nM). The change in polarisation values were normalised to the DMSO control group and presented as percentage change.” left out

[7] = target: T3, GST-PIN1 (UniProt Q13526 1-163, methionine (Met 1) mutated to asparagine (Asn 1)); assay: FP; 100 uM KPT-6566
T3 sequence (Q13526 other isoform, or with tags, fused parts or gaps methionine (Met 1) mutated to asparagine (Asn 1)): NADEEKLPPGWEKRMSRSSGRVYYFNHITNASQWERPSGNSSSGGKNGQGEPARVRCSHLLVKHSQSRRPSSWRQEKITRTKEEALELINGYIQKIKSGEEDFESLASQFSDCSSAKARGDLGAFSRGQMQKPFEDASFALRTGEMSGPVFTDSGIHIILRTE

[8] = target: T3, GST-PIN1; assay: FP; 100 uM juglone
[9] = target: T3, GST-PIN1; assay: FP; 10 uM Pintide
[10] = target: T4, GST-PIN1 (UniProt Q13526 1-163, methionine (Met 1) mutated to asparagine (Asn 1)); assay: fluorescence polarisation; GST-PIN1 (or GST) titrated to fluorescently labelled peptide (10 nM); room temperature; 5 mM HEPES pH 7.4, 30 mM NaCl, 0.1% v/v Tween20, 1% v/v DMSO; apparent Kd, variable slope dose-response fit; settings: both partners purified
T4 construct: peptidyl-prolyl cis-trans isomerase PIN1 from the GST-PIN1 plasmid (Addgene #19027); also called GST-tagged PIN1 construct; source: E. coli BL21 (DE3), purified (Glutathione spin columns)
T4 sequence (Q13526 other isoform, or with tags, fused parts or gaps with the stated changes): as the sequence (Q13526 other isoform, or with tags, fused parts or gaps methionine (Met 1) mutated to asparagine (Asn 1)) above

[11] = target: T3, GST-PIN1; assay: FP; 100 uM EGCG
[12] = target: T4, GST-PIN1; assay: fluorescence polarisation; competition: Pintide titrated to GST-PIN1 (1 uM) and fluorescently labelled NRF2(571-584) pSer577 peptide (10 nM); settings: both partners purified
[13] = target: T4, GST-PIN1; assay: fluorescence polarisation; competition: Pintide titrated to GST-PIN1 (1 uM) and fluorescently labelled NRF2(402-415) pSer408 peptide (10 nM); settings: both partners purified
[14] = target: T4, GST-PIN1; assay: fluorescence polarisation; competition: Pintide titrated to GST-PIN1 (1 uM) and fluorescently labelled NRF2(209-222) pSer215 peptide (10 nM); settings: both partners purified
[15] = GST-PIN1 1 µM, labelled NRF2_402-415^pSer408 10 nM, read-out: IC50, inhibition of NRF2_402-415^pSer408 binding to PIN1
[16] = GST-PIN1 1 µM, labelled NRF2_571-584^pSer577 10 nM, read-out: IC50, inhibition of NRF2_571-584^pSer577 binding to PIN1

T2 sequence (Q13526 whole entry, the tested form may be a part): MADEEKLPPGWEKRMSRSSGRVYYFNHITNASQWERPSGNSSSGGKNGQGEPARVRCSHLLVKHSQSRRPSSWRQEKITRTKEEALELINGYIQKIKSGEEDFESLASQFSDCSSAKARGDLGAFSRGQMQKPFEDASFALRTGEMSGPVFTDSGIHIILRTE
T1 sequence (Q13526 whole entry M1N): as the sequence (Q13526 other isoform, or with tags, fused parts or gaps methionine (Met 1) mutated to asparagine (Asn 1)) above
Sequence of GST-PIN1 (Homo sapiens, UniProt Q13526, M1N) (Q13526 whole entry M1N): as the sequence (Q13526 other isoform, or with tags, fused parts or gaps methionine (Met 1) mutated to asparagine (Asn 1)) above

O=C(O[C@@H]1Cc2c(O)cc(O)cc2O[C@@H]1c1cc(O)c(O)c(O)c1)c1cc(O)c(O)c(O)c1 [EGCG, epigallocatechin gallate]
inhibitory effect on the binding of any NRF2 phospho-peptide to PIN1 ([1]; inhibitor 100 µM, all three NRF2 phospho-peptides): did not show any inhibitory effect

CC(C)(C)c1ccc(S(=O)(=O)/N=C2\C=C(SCC(=O)O)C(=O)c3ccccc32)cc1 [KPT-6566]
extent of covalent PIN1 modification [2]: only a small amount of covalent PIN1 modification was observed | mass increase of the major modified PIN1 species [2]: 353 Da | IC50 [3, 15]: 0.3 µM | IC50 [3, 16]: 1.4 µM | fold more potent than Juglone ([3]; IC50 comparison, ligand displacement assay): ~ 20 fold | IC50 ([3]; range over the three NRF2 phospho-peptides, read-out: IC50 range, inhibitory effect on PIN1-NRF2 interaction): 0.3 to 1.4 µM | fold reduction in binding affinity of NRF2_209-222^pSer215 [1]: 25 fold | fold reduction in binding affinity of NRF2_402-415^pSer408 [1]: 92 fold | fold reduction in binding affinity of NRF2_571-584^pSer577 [1]: 149 fold | NRF2-mediated oxidative stress elements (microarray analysis) [4]: upregulation | NRF2 downstream enzymes cFOS, HO1, NQO1, TXNRD1, DNAJB9 at the mRNA level (quantitative RT-PCR) [4]: upregulation | PIN1 mass increase [5]: 90 Da

CSCC[C@H](NC(=O)[C@@H](NC(=O)[C@@H](NC(=O)[C@H](CCC(=O)O)NC(=O)CCCCCNC(=S)Nc1ccc2c(c1)C(=O)OC21c2ccc(O)cc2Oc2cc(O)ccc21)[C@@H](C)O)[C@@H](C)O)C(=O)N[C@H](C(=O)N1CCC[C@H]1C(=O)N[C@@H](COP(=O)(O)O)C(=O)N1CCC[C@H]1C(=O)N[C@@H](CCC(=O)O)C(=O)N[C@@H](C)C(=O)N[C@@H](CCCCN)C(=O)N[C@@H](CC(C)C)C(=O)N[C@H](C(=O)N[C@@H](CCC(=O)O)C(=O)O)[C@@H](C)O)C(C)C [NRF2_209-222^pSer215, ETTMVPpSPEAKLTE] ({FITC-Ahx}-ETTMVP[pS]PEAKLTE-OH; N-terminus assumed)
fold weaker interaction with PIN1 than the optimised Pintide ligand [6]: tenfold

CSCC[C@H](NC(=O)[C@H](CC(=O)O)NC(=O)CCCCCNC(=S)Nc1ccc2c(c1)C(=O)OC21c2ccc(O)cc2Oc2cc(O)ccc21)C(=O)N[C@H](C(=O)N[C@@H](CCC(N)=O)C(=O)N1CCC[C@H]1C(=O)N[C@@H](CC(C)C)C(=O)N[C@@H](COP(=O)(O)O)C(=O)N1CCC[C@H]1C(=O)N[C@@H](CO)C(=O)N[C@@H](CCC(N)=O)C(=O)NCC(=O)N[C@@H](CCC(N)=O)C(=O)N[C@@H](CO)C(=O)N[C@H](C(=O)O)[C@@H](C)O)C(C)C [NRF2_402-415^pSer408, DMVQPLpSPSQGQST] ({FITC-Ahx}-DMVQPL[pS]PSQGQST-OH; N-terminus assumed)
fold weaker interaction with PIN1 than the optimised Pintide ligand [6]: ~ 13 fold

O=C1C=CC(=O)c2c(O)cccc21 [juglone]
IC50 ([3]; GST-PIN1 1 µM, labelled NRF2_209-222^pSer215 10 nM, read-out: IC50, inhibition of NRF2_209-222^pSer215 binding to PIN1): 26.8 µM | IC50 [3, 15]: 20 µM | IC50 [3, 16]: 30 µM | fold reduction in binding affinity of NRF2_209-222^pSer215 [1]: 8 fold | fold reduction in binding affinity of NRF2_402-415^pSer408 [1]: 18 fold | fold reduction in binding affinity of NRF2_571-584^pSer577 [1]: sixfold

B1: fluorescein-labelled NRF2(571-584) pSer577 phospho-peptide (peptide)
peptide: {fluorescein-Ahx}-EDGKPY[pS]PSEYDLQ-OH
notes: NRF2 (nuclear factor erythroid 2-related factor 2), residues 571-584, in the Neh3 domain; see recheck for residue 582; source: synthetic peptide, bought: China Peptides
Kd [7]: 25.3 µM | Kd [8]: 1 µM | Kd [9]: 1.76 µM | Kd [10]: 0.168 ± 0.025 µM | Kd [11]: 0.2 µM

B2: Pintide, fluorescently labelled (peptide)
peptide: WFY[pS]PFLE
modifications: also: fluorescently labelled, site not given here
notes: source: synthetic peptide, bought: China Peptides
Kd [10]: 0.017 ± 0.003 µM

B3: fluorescein-labelled NRF2(209-222) pSer215 phospho-peptide (peptide)
peptide: {fluorescein-Ahx}-ETTMVP[pS]PEAKLTE-OH
notes: NRF2 (nuclear factor erythroid 2-related factor 2), residues 209-222, in the Neh7 domain; also called Peptide 1; source: synthetic peptide, bought: China Peptides
Kd [7]: 4.04 µM | Kd [8]: 1.3 µM | Kd [9]: 1.07 µM | Kd [10]: 0.157 ± 0.015 µM

B4: Pintide (competitor, not labelled) (peptide)
peptide: WFY[pS]PFLE
notes: also called WW domain-selective Pintide; source: synthetic peptide, bought: China Peptides
IC50 [12]: 6.7 µM | IC50 [13]: 6.8 µM | IC50 [14]: 5.7 µM

B5: fluorescein-labelled NRF2(402-415) pSer408 phospho-peptide (peptide)
peptide: {fluorescein-Ahx}-DMVQPL[pS]PSQGQST-OH
notes: NRF2 (nuclear factor erythroid 2-related factor 2), residues 402-415, linker between the Neh6 and Neh1 domains; source: synthetic peptide, bought: China Peptides
Kd [7]: 20.2 µM | Kd [8]: 3.9 µM | Kd [9]: 1.59 µM | Kd [10]: 0.221 ± 0.04 µM
